Measurements taken from patent publication EP0713876A1, “Triazine derivative, chymase activity inhibitor and nitric oxide production inhibitor” (Wakamoto Pharmaceutical Co., Ltd., priority 1994, dated 1996).
Marks after values point to notes of the source that are not given here.

System: mouse macrophage cell line, RAW264
Experiment: Inhibition of LPS-induced nitric oxide (NO) production, nitrite by Griess reaction
Format: cell-based
Details: 10⁻⁵ M test compound, RAW264, 1 µg/ml LPS, 36hr
Protocol: The mouse macrophage cell line, RAW264, obtained from the Riken Cell Bank, was cultured in RPMI-1640 medium without phenol red containing 10% inactivated fetal bovine serum and 100 µg/ml kanamycin at 37°C in 5% CO₂ in air. Cells were seeded into 96-well tissue culture plates (6x10⁴ cells/well) and allowed to adhere for 4 hr at 37 °C . To assess the effects of test compounds on induction of NO production, 100 µl of fresh culture medium containing them were added to the medium, followed by the additions of 1 µg/ml of LPS (E Coli 055, derived from B5 cell line, DIFCO Co.) to activate macrophage cells. At the same time, cultivation was conducted in the presence or absence of a test compound.
Since the measurement of NO is difficult due to the unstableness of NO, the nitrite ion (NO₂⁻) which is the oxidation product of NO was measured.
Productions of NO were assayed by measuring the concentrations of NO₂⁻ in culture medium by the Griess reaction by the method of Green et al. (Anal. Biochem., 126, 131-138, 1982). Nitrite accumulation in the cell culture medium was measured 36hr after LPS-stimulations. One hundred microliters of Griess reagents (1% sulfanylamide and 0.1% N-1-naphthylethylenediamine dichloride in 5% phosphoric acid) were added to 100 µl of cell culture medium at a room temperature. After 10 min, the optical densities at 550 nm (OD550) were measured by using a microplate reader.
In unstimulated RAW264 macrophages, NO₂⁻ production for 36 hr was not determined in the presence or absence of test compounds. Calculations of the inhibition% of NO production by the test compounds were carried out as depicted below. Inhibition% = (1-a/b)x100(%) [formula] a; the OD550 in presence of test compound b; the OD550 in absence of test compound IC₅₀ values were expressed as the concentrations (M) of test compounds producing 50% inhibition.

| Structure (SMILES) | Inhibition (%) of NO production at the concentration of 10⁻⁵ M |
| --- | --- |
| [O-][S+](Cc1ccc(Cl)cc1)c1nnc(OCc2ccc(Cl)cc2)c2nccn12 (stereo not drawn) [Example 35, 8-(4-chlorobenzyloxy)-5-(4-chlorobenzylsulfinyl)imidazo[1,2-d][1.2.4]triazine] | 20 * % |
| N#Cc1ccc(COc2nnc([S+]([O-])Cc3ccc(C#N)cc3)n3ccnc23)cc1 (stereo not drawn) [Example 41, 8-(4-cyanobenzyloxy)-5-(4-cyanobenzylsulfinyl)imidazo[1,2-d][1.2.4]triazine] | 49 * % |
| [O-][S+](Cc1ccc(C(F)(F)F)cc1)c1nnc(OCc2ccc(C(F)(F)F)cc2)c2nccn12 (stereo not drawn) [Example 42, 8-(4-trifluoromethylbenzyloxy)-5-(4-trifluoromethylbenzylsulfinyl)imidazo[1,2-d][1.2.4]triazine] | 8 * % |
| [O-][S+](Cc1ccc(Cl)cc1)c1nnc(OCc2ccc(Cl)cc2)c2cccn12 (stereo not drawn) [Example 36, 1-(4-chlorobenzyloxy)-4-(4-chlorobenzylsulfinyl)pyrrolo [1,2-d][1.2.4]triazine] | 31 * % |
| Cc1ncn2c([S+]([O-])Cc3ccc(Cl)cc3)nnc(O)c12 (stereo not drawn) [Example 33, 4-(4-chlorobenzylsulfinyl)-1-hydroxy-8-methyl imidazo [1,5-d][1.2.4]triazine] | 4 * % |
| [O-][S+](Cc1cccc(Cl)c1)c1nnc(OCc2cccc(Cl)c2)c2nccn12 (stereo not drawn) [Example 40, 8-(3-chlorobenzyloxy)-5-(3-chlorobenzylsulfinyl)imidazo[1,2-d][1.2.4]triazine] | 32 * % |

Target: T1, rat mast cell chymase (Rattus norvegicus, UniProt P09650)
T1 construct: Chymase was partially purified from rat peritoneal cavity mast cells; from tissue; host or cells: peritoneal cavity mast cells of male Sprague Dawley rats
T1 sequence (P09650 21-260): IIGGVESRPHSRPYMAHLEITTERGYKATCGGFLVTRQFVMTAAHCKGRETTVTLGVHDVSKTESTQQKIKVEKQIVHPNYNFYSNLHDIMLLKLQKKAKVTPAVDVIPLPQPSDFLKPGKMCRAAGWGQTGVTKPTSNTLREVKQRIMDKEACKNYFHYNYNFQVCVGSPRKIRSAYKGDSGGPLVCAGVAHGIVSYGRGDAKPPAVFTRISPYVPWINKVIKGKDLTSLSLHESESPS
Experiment: Inhibition of chymase activity (chromogenic substrate N-Suc-Ala-Ala-Pro-Phe-p-nitroanilide)
Format: biochemical
Details: 10⁻⁵ M test compound
Protocol: Mast cells were obtained from the peritoneal cavity of male Sprague Dawley(SD) rats by the method of Graziano et al. (Methods in Enzymol., 162, 501-514, 1988), layered on 75% Percoll (Pharmacia Biotech), and then purified to over 90% purity by centrifugation at 150xG for 15 min.
Chymase was partially purified from rat peritoneal cavity mast cells by the method of Kido et al. (Arch. Biochem. Biophys., 239, 436-443, 1985). Purified mast cells were quickly frozen and thawed several times and homogenized in a low ionic strength-buffer (pH6.5). The homogenate was centrifuged at 20,000xG for 20 min. The precipitate was re-homogenized in a high ionic strength-buffer (pH8.0) and cetrifuged at 20,000xG for 20 min. The supernatant was recovered and the enzyme was extracted. From the crude extract, chymase was partially purified by an Octyl-Sepharose CL-4B (Pharmacia Biotech) hydrophobic chromatography.
Ten microliters of test compounds in dimethyl sulfoxide (DMSO) were mixed with 250 µl of 60 mM Tris-HCl buffer (pH8.0) containing 0.2 M NaCl and 250 µl of 1 µg/ml chymase in buffer. The mixtures were pre-incubated for 5 min. at 37°C . After the addition of 500 µl of 0.6 mM chromogenic substrate, N-Suc-Ala-Ala-Pro-Phe-p-nitroanilide (Sigma), the reactions were carried out for 30 min. at 37 °C , and then stopped by the addition of 50 µl of 0.75 M acetic acid. The absorbances at 405nm were measured in a spectrophotometer, and the amount of p-nitroaniline released from the substrate was measured.
Calculations of the inhibition% of chymase by test compounds were carried out as below. Inhibition% = {1-(a-a' )/(b-b' ) } x 100 (%) [formula] a; the absorbance in presence of test compound. a'; the absorbance of non-reaction in presence of test compound. b; the absorbance in absence of test compound. b'; the absorbance of non-reaction in absence of test compound.
IC₅₀ values were expressed as the concentrations (M) of test compounds producing 50% inhibition.

| Structure (SMILES) | Inhibition (%) of chymase at a concentration of 10⁻⁵ M |
| --- | --- |
| CCOc1nnc([S+]([O-])CC)n2cnc(C)c12 (stereo not drawn) [Example 55, 1-ethoxy-4-ethylsulfinyl-8-methylimidazo[1,5-d][1.2.4]triazine] | 22% * |
| [O-][S+](CCCCl)c1nnc(OCCCCl)c2nccn12 (stereo not drawn) [Example 51, 8-(3-chloropropoxy)-5-(3-chloropropyl)sulfinylimidazo[1,2-d][1.2.4]triazine] | 50% * |
| CCOC(=O)COc1nnc([S+]([O-])CC(=O)OCC)n2ccnc12 (stereo not drawn) [Example 52, 8-ethoxycarbonylmethyloxy-5-ethoxycarbonylmeth ylsulfinylimidazo[1,2-d][1.2.4]triazine] | 39% * |
| [O-][S+](Cc1ccc(C(F)(F)F)cc1)c1nnc(OCc2ccc(C(F)(F)F)cc2)c2nccn12 (stereo not drawn) [Example 42, 8-(4-trifluoromethylbenzyloxy)-5-(4-trifluoromethylbenzylsulfinyl)imidazo[1,2-d][1.2.4]triazine] | 11%* |
| CCn1nc([S+]([O-])CC)n2cnc(C)c2c1=O (stereo not drawn) [Example 56, 2-ethyl-4-ethylsulfinyl-8-methylimidazo[1,5-d][1.2.4]triazine-1(2H)-one] | 8% * |
| CC(C)c1ccc(COc2nnc([S+]([O-])Cc3ccc(C(C)C)cc3)n3ccnc23)cc1 (stereo not drawn) [Example 38, 8-(4-isopropylbenzyloxy)-5-(4-isopropylbenzylsulfinyl) imidazo[1,2-d][1,2,4]triazine] | 41% * |
| CCOc1nnc([S+]([O-])CC)n2ccnc12 (stereo not drawn) [Example 46, 8-ethoxy-5-ethylsulfinylimidazo[1,2-d][1.2.4]triazine] | 5 % * |

System: ICR mice
Experiment: Single-dose toxicity
Format: in vivo
Details: male ICR mice, p.o. 500 mg/kg single dose, observed for 14 days
Protocol: Ten Male ICR mice (4-week-old) were housed in each group. Test compounds were suspended in 0.5% aqueous sodium methyl cellulose, and then administered p.o. at the dose of 500 mg/kg to mice. Animals were then observed for 14 days and the mortality rate was determined. […]

| Structure (SMILES) | The number of death/ The number of animal |
| --- | --- |
| Cc1ncn2c([S+]([O-])Cc3ccc(Cl)cc3)nn(Cc3ccc(Cl)cc3)c(=O)c12 (stereo not drawn) [Example 54, 2-(4-chlorobenzyl)-4-(4-chlorobenzylsulfinyl)-8-methyl imidazo[1,5-d][1.2.4]triazine-1(2H)-one] | 0/10 |
| [O-][S+](Cc1ccc(Cl)cc1)c1nnc(OCc2ccc(Cl)cc2)c2nccn12 (stereo not drawn) [Example 35, 8-(4-chlorobenzyloxy)-5-(4-chlorobenzylsulfinyl)imidazo[1,2-d][1.2.4]triazine] | 0/10 |
| [O-][S+](Cc1ccc(Cl)cc1)c1nnc(O)c2nccn12 (stereo not drawn) [Example 31, 5-(4-chlorobenzylsulfinyl)-8-hydroxyimidazo[1,2-d][1.2.4]triazine] | 0/10 |
| Cc1ncn2c([S+]([O-])Cc3ccc(Cl)cc3)nnc(OCc3ccc(Cl)cc3)c12 (stereo not drawn) [Example 53, 1-(4-chlorobenzyloxy)-4-(4-chlorobenzylsulfinyl)-8-methylimidazo[1,5-d][1.2.4]triazine] | 0/10 |
| [O-][S+](Cc1ccc(Cl)cc1)c1nnc(O)c2cccn12 (stereo not drawn) [Example 29, 4-(4-chlorobenzylsulfinyl)-1-hydroxypyrrolo[1,2-d][1.2.4]triazine] | 0/10 |
